Test results published in patent US8785404B2, “Urea compounds” (Eli Lilly and Company, priority 2012, dated 2014).

How the values were obtained:
C57Bl/6 mice = assay: Glucose lowering effects in oral glucose tolerance test (OGTT); assay type: in vivo, mouse; conditions: for Glucose, 20 Minute / Glucose, 40 Minute / Glucose, 60 Minute / Glucose, 120 Minute / Glucose, 0 Minute / Baseline Adjusted AUC (glucose) / Glucose Cmax / Glucose Tmax: 10 mg/kg oral, mean ± SE; for Glucose, 20 Minute: 20 min after dextrose 3 g/kg; for Glucose, 40 Minute: 40 min after dextrose 3 g/kg; for Glucose, 60 Minute: 60 min after dextrose 3 g/kg; for Glucose, 120 Minute: 120 min after dextrose 3 g/kg; for Glucose, 0 Minute: baseline before dextrose 3 g/kg
Method: The test compound is formulated by adding a vehicle of 1% hydroxyethylcellulose, 0.25% Tween® 80 w/antifoam 0.05% to preweighed test compound to make a 1 mg/ml solution. The mixture is probe sonicated for approximately 1 minute. A stir bar is added, and the resulting suspension is stirred continuously throughout dosing.
Single housed C57Bl/6 mice are weighed and body weights used to determine study groups (n=5), within a working range of 26-30 g. After grouping, all mice are fasted overnight by removing access to food, late afternoon before test day. At the same time, two groups of mice are orally gavaged with 10 ml/kg test compound preparation or vehicle. Animals are dosed thirty seconds apart. […] The following morning, the remaining mice are weighed and orally gavaged using the same protocol as the previous day.
At five, eight and eighteen hours after each respective compound treatment is started, a baseline blood sample is taken for measuring glucose (from the first animal, via tail snip). The animal is then immediately given an oral dose of 50% dextrose (Hospira®) at 3 g/kg. Blood samples are taken for glucose, exactly thirty seconds apart, by tail vein so that blood is collected in each animal at 20, 40, 60 and 120 minutes after the dextrose dose.

mouse SGLT1 = target: T1, mouse SGLT1 (Mus musculus, UniProt Q8C3K6); assay: 14C-AMG uptake assay, mouse SGLT1 in CHO-K1 cells; assay type: cell-based; conditions: sodium-dependent 14C-AMG uptake, n = 5
T1 sequence (Q8C3K6 1-665): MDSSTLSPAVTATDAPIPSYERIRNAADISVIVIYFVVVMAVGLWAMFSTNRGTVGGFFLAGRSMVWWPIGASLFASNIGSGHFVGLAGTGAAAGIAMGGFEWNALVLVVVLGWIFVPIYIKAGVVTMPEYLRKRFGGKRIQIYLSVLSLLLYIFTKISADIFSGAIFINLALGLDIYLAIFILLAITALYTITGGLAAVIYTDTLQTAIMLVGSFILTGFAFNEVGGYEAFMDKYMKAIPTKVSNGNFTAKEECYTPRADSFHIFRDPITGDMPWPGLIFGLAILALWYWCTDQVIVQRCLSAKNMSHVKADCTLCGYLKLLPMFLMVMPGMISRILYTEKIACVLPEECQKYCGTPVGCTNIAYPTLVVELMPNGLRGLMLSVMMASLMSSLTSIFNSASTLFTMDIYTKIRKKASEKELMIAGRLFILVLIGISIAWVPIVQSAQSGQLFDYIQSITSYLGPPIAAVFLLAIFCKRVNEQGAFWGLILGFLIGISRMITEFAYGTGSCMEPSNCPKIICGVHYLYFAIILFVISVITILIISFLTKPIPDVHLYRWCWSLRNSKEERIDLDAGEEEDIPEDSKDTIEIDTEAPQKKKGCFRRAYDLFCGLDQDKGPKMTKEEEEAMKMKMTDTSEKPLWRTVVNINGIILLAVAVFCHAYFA
From the text: (§1) The cDNA encoding human SGLT1 (slc5a1, NM_000343), human SGLT2 (slc5a2, NM_003041) and mouse SGLT1 (slc5a1, NM_019810.4) are purchased from Openbiosystems, Invitrogen and Openbiosystems, respectively. The cDNA is cloned into pcDNA3.1+ for mammalian expression and is stably transfected into Chinese hamster ovary (CHO)-K1 cells using standard mammalian transfection procedures. An SGLT-expressing sub-clone of each over-expressing cell line is selected based on resistance to neomycin (Geneticin, Invitrogen) and activity in the ^14C-α-methyl-D-glucopyranoside (^14C-AMG) uptake assay (see below). Stable SGLT-expressing cells are maintained using standard cell culture techniques.
(§2) The SGLT activity is measured as sodium-dependent ^14C-AMG uptake in the above cell lines described as follows. One hundred μL of culture medium containing 30,000 cells are seeded to each well of a 96-well BioCoat poly-D-lysine plate (Becton Dickson) and cultured at 37° C. overnight. The culture medium is aspirated and cells are washed twice with 200 μL of Reaction Buffer (140 mM NaCl, 2 mM KCl, 1 mM CaCl2, MgCl2, and 14 mM N-2-hydroethylpiperrazine-N′-2-ethanesulfonic acid (Hepes), pH 7.5). The excess buffer is tapped out onto paper towels. Thirty-five μL of Reaction Buffer are added to each well. […] After mixing, the scintillation signal in the plate is counted in a MicroBeta (PerkinElmer). […]

human SGLT2 = target: T2, human SGLT2 (Homo sapiens, UniProt P31639); assay: 14C-AMG uptake assay, human SGLT2 in CHO-K1 cells; assay type: cell-based; conditions: sodium-dependent 14C-AMG uptake, n = 5
T2 sequence (P31639 1-672): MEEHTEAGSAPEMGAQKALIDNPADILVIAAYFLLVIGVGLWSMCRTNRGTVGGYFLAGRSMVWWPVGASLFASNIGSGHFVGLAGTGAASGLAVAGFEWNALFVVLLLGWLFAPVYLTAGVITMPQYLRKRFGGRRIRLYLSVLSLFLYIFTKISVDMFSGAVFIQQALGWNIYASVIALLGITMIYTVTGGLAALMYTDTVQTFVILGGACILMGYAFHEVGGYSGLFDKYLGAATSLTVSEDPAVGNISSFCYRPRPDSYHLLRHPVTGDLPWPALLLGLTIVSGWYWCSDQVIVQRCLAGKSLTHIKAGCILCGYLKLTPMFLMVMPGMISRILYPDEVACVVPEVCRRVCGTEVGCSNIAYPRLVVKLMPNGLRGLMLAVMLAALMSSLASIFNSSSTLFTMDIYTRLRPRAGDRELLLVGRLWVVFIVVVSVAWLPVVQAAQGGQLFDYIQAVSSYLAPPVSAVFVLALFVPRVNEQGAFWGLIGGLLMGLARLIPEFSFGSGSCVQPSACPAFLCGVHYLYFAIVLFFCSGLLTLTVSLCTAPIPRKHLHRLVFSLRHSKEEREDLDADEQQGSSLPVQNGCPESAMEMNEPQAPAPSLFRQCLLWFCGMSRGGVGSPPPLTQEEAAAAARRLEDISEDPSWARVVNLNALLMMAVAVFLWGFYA
From the text: as §1, §2

human SGLT1 = target: T3, human SGLT1 (Homo sapiens, UniProt P13866); assay: 14C-AMG uptake assay, human SGLT1 in CHO-K1 cells; assay type: cell-based
T3 sequence (P13866 1-664): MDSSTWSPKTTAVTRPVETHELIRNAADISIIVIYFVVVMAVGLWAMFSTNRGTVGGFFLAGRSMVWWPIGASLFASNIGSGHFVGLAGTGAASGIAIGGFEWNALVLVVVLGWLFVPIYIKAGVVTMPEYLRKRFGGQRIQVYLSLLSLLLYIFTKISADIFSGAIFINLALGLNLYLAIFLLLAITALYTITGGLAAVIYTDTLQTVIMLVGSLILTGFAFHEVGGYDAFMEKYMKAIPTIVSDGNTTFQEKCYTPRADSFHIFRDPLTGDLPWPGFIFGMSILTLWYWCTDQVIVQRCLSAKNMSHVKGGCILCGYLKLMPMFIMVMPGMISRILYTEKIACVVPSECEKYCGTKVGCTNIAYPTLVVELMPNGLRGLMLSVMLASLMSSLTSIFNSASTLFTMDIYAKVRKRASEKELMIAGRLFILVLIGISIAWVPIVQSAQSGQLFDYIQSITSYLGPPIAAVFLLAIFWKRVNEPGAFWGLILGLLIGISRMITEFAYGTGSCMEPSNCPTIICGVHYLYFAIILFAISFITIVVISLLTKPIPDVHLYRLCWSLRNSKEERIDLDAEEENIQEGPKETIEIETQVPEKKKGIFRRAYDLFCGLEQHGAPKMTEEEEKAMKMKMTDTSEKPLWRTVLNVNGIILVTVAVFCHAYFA
From the text: as §1, §2

- IC50 (mouse SGLT1): 7.3 ± 2.9 nM
- IC50 (human SGLT2): 171 ± 26 nM
- IC50 (human SGLT1; sodium-dependent 14C-AMG uptake, CHO-K1 cells, n = 5): 17.3 ± 16.2 nM
SMILES: Cc1cc(/C=C/CCN2CCCC3(CCN(C(=O)CNC(=O)NCC(C)C)CC3)C2)ccc1Cc1c(O[C@@H]2O[C@H](CO)[C@@H](O)[C@H](O)[C@H]2O)n[nH]c1C(C)C [Example 1, 1-(2-{2-[(3E)-4-(4-{[3-(beta-D-glucopyranosyloxy)-5-(propan-2-yl)-1H-pyrazol-4-yl]methyl}-3-methylphenyl)but-3-en-1-yl]-2,9-diazaspiro[5.5]undec-9-yl}-2-oxoethyl)-3-(2-methylpropyl)urea]
- Glucose, 20 Minute (C57Bl/6 mice; OGTT @ 5 hr post dose): 124.7 ± 7.66 mg/dL
- Glucose, 40 Minute (C57Bl/6 mice; OGTT @ 5 hr post dose): 139.2 ± 7.69 mg/dL
- Glucose, 60 Minute (C57Bl/6 mice; OGTT @ 5 hr post dose): 133.2 ± 6.24 mg/dL
- Glucose, 120 Minute (C57Bl/6 mice; OGTT @ 5 hr post dose): 108.7 ± 4.93 mg/dL
- Glucose, 0 Minute (C57Bl/6 mice; OGTT @ 5 hr post dose): 75.9 ± 3.21 mg/dL
- Baseline Adjusted AUC (glucose) (C57Bl/6 mice; OGTT @ 5 hr post dose): 2815 ± 194 mg/dL
- Glucose Cmax (C57Bl/6 mice; OGTT @ 5 hr post dose): 140.2 ± 7.48 mg/dL
- Glucose Tmax (C57Bl/6 mice; OGTT @ 5 hr post dose): 56 ± 16 min
- Glucose, 20 Minute (C57Bl/6 mice; OGTT @ 8 hrs post dose): 142.4 ± 7.4 mg/dL
- Glucose, 40 Minute (C57Bl/6 mice; OGTT @ 8 hrs post dose): 168.1 ± 8.37 mg/dL
- Glucose, 60 Minute (C57Bl/6 mice; OGTT @ 8 hrs post dose): 171.2 ± 10.1 mg/dL
- Glucose, 120 Minute (C57Bl/6 mice; OGTT @ 8 hrs post dose): 113.6 ± 4.25 mg/dL
- Glucose, 0 Minute (C57Bl/6 mice; OGTT @ 8 hrs post dose): 75.5 ± 4.42 mg/dL
- Baseline Adjusted AUC (glucose) (C57Bl/6 mice; OGTT @ 8 hrs post dose): 4147 ± 456 mg/dL
- Glucose Cmax (C57Bl/6 mice; OGTT @ 8 hrs post dose): 175.1 ± 9.3 mg/dL
- Glucose Tmax (C57Bl/6 mice; OGTT @ 8 hrs post dose): 52 ± 4.9 min
- Glucose, 20 Minute (C57Bl/6 mice; OGTT @ 18 hrs post dose): 196.0 ± 16.6 mg/dL
- Glucose, 40 Minute (C57Bl/6 mice; OGTT @ 18 hrs post dose): 216.1 ± 15.0 mg/dL
- Glucose, 60 Minute (C57Bl/6 mice; OGTT @ 18 hrs post dose): 188.7 ± 13.8 mg/dL
- Glucose, 120 Minute (C57Bl/6 mice; OGTT @ 18 hrs post dose): 110.3 ± 5.74 mg/dL
- Glucose, 0 Minute (C57Bl/6 mice; OGTT @ 18 hrs post dose): 78.7 ± 8.81 mg/dL
- Baseline Adjusted AUC (glucose) (C57Bl/6 mice; OGTT @ 18 hrs post dose): 6194 ± 406 mg/dL
- Glucose Cmax (C57Bl/6 mice; OGTT @ 18 hrs post dose): 216.1 ± 15.0 mg/dL
- Glucose Tmax (C57Bl/6 mice; OGTT @ 18 hrs post dose): 44 ± 4.0 min
- Average maximum concentration of plasma glucose (Cmax) (in words) (C57Bl/6 mice; during all three OGTTs): decreases
- Average time for glucose to reach maximum concentration (Tmax) (in words) (C57Bl/6 mice; during all three OGTTs): increasing
- Baseline adjusted glucose AUC (in words) (C57Bl/6 mice; during all three OGTTs): dose dependent decrease
- Glucose excursion after oral bolus of 50% dextrose (in words) (C57Bl/6 mice; normal glycemic C57Bl/6 mouse, five, eight or eighteen hours after administration): decrease in the glucose excursion
- Potency at SGLT1 relative to human SGLT2 (in words) (human SGLT1; in vitro, human and mouse SGLT1 vs human SGLT2): more potent at human and mouse SGLT1 than at human SGLT2
